From PubChem BioAssay AID1918954 (Molecular Pharmacology Branch, DTP, NCI, 2023)
Values joined by “and” are separate entries in the source; they are usually repeats but may differ in a detail not shown here. Equal values may be shown once.

System: MDA-MB-468 complex spheroids with HUVEC/MSC, viability
Assay: Anticancer human tumor MDA-MB-468 cell line growth inhibition;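 also: spheroids exposed to agents for seven days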;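 as to viability, T/C: 100% = DMSO vehicle control viability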
Conditions: for viability, T/C: stronger effect = lower value
Procedure, shortened: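 Multicellular complex spheroids of tumor cells with human endothelial cells (HUVEC) and mesenchymal stem cells; the LSD1 inhibitor iadademstat was combined with standard-of-care or investigational agents. Top concentration at or near clinical Cmax, half-log dilutions; final DMSO ≤0.25%.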

[1] = curve of first compound, second compound 0.1 µM
[2] = curve of first compound, second compound 0.316 µM
[3] = curve of first compound, second compound 1 µM
[4] = curve of first compound, second compound 3.16 µM
[5] = curve of first compound, second compound 10 µM
[6] = second compound 0.1 µM, first compound 0.00316 µM
[7] = second compound 0.1 µM, first compound 0.01 µM
[8] = second compound 0.1 µM, first compound 0.0316 µM
[9] = second compound 0.1 µM, first compound 0.1 µM
[10] = second compound 0.316 µM, first compound 0.00316 µM
[11] = second compound 0.316 µM, first compound 0.01 µM
[12] = second compound 0.316 µM, first compound 0.0316 µM
[13] = second compound 0.316 µM, first compound 0.1 µM
[14] = second compound 1 µM, first compound 0.00316 µM
[15] = second compound 1 µM, first compound 0.01 µM
[16] = second compound 1 µM, first compound 0.0316 µM
[17] = second compound 1 µM, first compound 0.1 µM
[18] = second compound 3.16 µM, first compound 0.00316 µM
[19] = second compound 3.16 µM, first compound 0.01 µM
[20] = second compound 3.16 µM, first compound 0.0316 µM
[21] = second compound 3.16 µM, first compound 0.1 µM
[22] = second compound 10 µM, first compound 0.00316 µM
[23] = second compound 10 µM, first compound 0.01 µM
[24] = second compound 10 µM, first compound 0.0316 µM
[25] = second compound 10 µM, first compound 0.1 µM
[26] = second compound 0.1 µM, first compound 0.316 µM
[27] = second compound 0.1 µM, first compound 1 µM
[28] = second compound 0.316 µM, first compound 0.316 µM
[29] = second compound 0.316 µM, first compound 1 µM
[30] = second compound 1 µM, first compound 0.316 µM
[31] = second compound 1 µM, first compound 1 µM
[32] = second compound 3.16 µM, first compound 0.316 µM
[33] = second compound 3.16 µM, first compound 1 µM
[34] = second compound 10 µM, first compound 0.316 µM
[35] = second compound 10 µM, first compound 1 µM

| SMILES | IC50 [1] [nM] | IC50 [2] [nM] | IC50 [3] [nM] | IC50 [4] [nM] | IC50 [5] [nM] | viability, T/C [6] [%] | viability, T/C [7] [%] | viability, T/C [8] [%] | viability, T/C [9] [%] | viability, T/C [10] [%] | viability, T/C [11] [%] | viability, T/C [12] [%] | viability, T/C [13] [%] | viability, T/C [14] [%] | viability, T/C [15] [%] | viability, T/C [16] [%] | viability, T/C [17] [%] | viability, T/C [18] [%] | viability, T/C [19] [%] | viability, T/C [20] [%] | further results |
| --- | --- | --- | --- | --- | --- | --- | --- | --- | --- | --- | --- | --- | --- | --- | --- | --- | --- | --- | --- | --- | --- |
| CC[C@@]1(O)C(=O)OCc2c1cc1n(c2=O)Cc2cc3c(CN(C)C)c(O)ccc3nc2-1 + NC1CC1c1ccc(-c2cccc(O)c2)cc1 | 1.32 | 1.2 | 1.15 | 1.05 | 0.731 | 12.6 | 7.83 | 4.57 | 4.01 | 12.2 | 7.26 | 4.33 | 3.89 | 12.1 | 7.25 | 4.02 | 3.43 | 12.3 | 6.86 | 3.9 | viability, T/C (second compound 0.1 µM, first compound 0.000316 µM): 95.6%; viability, T/C (second compound 0.1 µM, first compound 0.001 µM): 61.8%; viability, T/C (second compound 0.316 µM, first compound 0.000316 µM): 97.4%; viability, T/C (second compound 0.316 µM, first compound 0.001 µM): 57.1%; viability, T/C (second compound 1 µM, first compound 0.000316 µM): 90.9%; viability, T/C (second compound 1 µM, first compound 0.001 µM): 55.3%; viability, T/C (second compound 3.16 µM, first compound 0.000316 µM): 98%; viability, T/C (second compound 3.16 µM, first compound 0.001 µM): 51.8%; viability, T/C [21]: 2.97%; viability, T/C (second compound 10 µM, first compound 0.000316 µM): 67.6%; viability, T/C (second compound 10 µM, first compound 0.001 µM): 43.5%; viability, T/C [22]: 13.9%; viability, T/C [23]: 7.24%; viability, T/C [24]: 4.44%; viability, T/C [25]: 3.53% |
| COc1cc(Nc2ncc3c(n2)-c2ccc(Cl)cc2C(c2c(F)cccc2OC)=NC3)ccc1C(=O)O + NC1CCC(NC2CC2c2ccccc2)CC1 | 5.48 | 5.74 | 5.62 | 4.4 | 4.25 | 67.1 | 31 | 15.9 | 7.27 | 70.7 | 30.2 | 16.6 | 8.6 | 69 | 29.8 | 17.8 | 8.46 | 57.8 | 30.5 | 19.4 | viability, T/C [26]: 7.36%; viability, T/C [27]: 6.36%; viability, T/C [28]: 7.02%; viability, T/C [29]: 7.03%; viability, T/C [30]: 6.49%; viability, T/C [31]: 7.09%; viability, T/C [21]: 9.33%; viability, T/C [32]: 7.94%; viability, T/C [33]: 6.66%; viability, T/C [22]: 57.7%; viability, T/C [23]: 28%; viability, T/C [24]: 19.1%; viability, T/C [25]: 11.6%; viability, T/C [34]: 8.23%; viability, T/C [35]: 9.73% |
| Nc1ncn(C2CC(O)C(CO)O2)c(=O)n1 (centres undefined) |  |  |  |  |  |  |  |  |  |  |  |  |  |  |  |  |  |  |  |  | viability, T/C (compound 0.00316 µM): 81.4% and 94.2%; viability, T/C (compound 0.01 µM): 59.5% and 67%; viability, T/C (compound 0.0316 µM): 23.6% and 31.2%; viability, T/C (compound 0.1 µM): 15% and 14.6%; viability, T/C (compound 0.316 µM): 12.6% and 11%; viability, T/C (compound 1 µM): 12% and 8.85%; IC50 (curve of compound): 13.6 nM and 17.3 nM |
| CCc1c2c(nc3ccc(O)cc13)-c1cc3c(c(=O)n1C2)COC(=O)[C@]3(O)CC |  |  |  |  |  |  |  |  |  |  |  |  |  |  |  |  |  |  |  |  | viability, T/C (compound 0.000949 µM): 7.07% and 5.35%; viability, T/C (compound 0.003 µM): 7.03% and 4.74%; viability, T/C (compound 0.00949 µM): 5.45% and 2.28%; viability, T/C (compound 0.03 µM): 2.45% and 0.63%; viability, T/C (compound 0.0949 µM): 2.17% and 0.53%; viability, T/C (compound 0.3 µM): 2.73% and 0.59%; IC50 (curve of compound): < 0.949 nM |
| CC1COCCN1c1cc(-c2ccnn2C)c2ccnc(-c3ccn[nH]3)c2n1 (centres undefined) + NC1CCC(NC2CC2c2ccccc2)CC1 | 15.2 | 16.2 | 16 | 12.2 | 4.61 | 81.7 | 54.2 | 42.3 | 22.9 | 68.7 | 58.5 | 38.2 | 23 | 72.8 | 59 | 37.3 | 23.2 | 60.4 | 52.7 | 38.9 | viability, T/C [26]: 15.6%; viability, T/C [27]: 11.2%; viability, T/C [28]: 16.5%; viability, T/C [29]: 13.8%; viability, T/C [30]: 16.4%; viability, T/C [31]: 9.5%; viability, T/C [21]: 27.6%; viability, T/C [32]: 18.4%; viability, T/C [33]: 14.9%; viability, T/C [22]: 52.9%; viability, T/C [23]: 44%; viability, T/C [24]: 30.1%; viability, T/C [25]: 19%; viability, T/C [34]: 17.4%; viability, T/C [35]: 13.4% |
